Publication PMC3597608, “Yellow Fluorescent Protein-Based Assay to Measure GABAA Channel Activation and Allosteric Modulation in CHO-K1 Cells” (PLoS ONE, 2013)
Read-outs that look alike come from different tables or passages of the source.

Legend:
[1] = biological target: T1, human GABAA α2β3γ2 (Homo sapiens, UniProt P18507+P28472+P47869); assay: cell-based; format: cell-based
T1 construct: expressed in transfected cells; host or cells: CHO-K1 (ATCC, CCL-61), transient electroporation with MaxCyte STX, cryopreserved assay-ready cells
Protocol: The cDNA of YFP (Genbank accession number AY818378) with H148Q and I152L mutations was inserted into the pcDNA3.1 vector using 5′ BamHI and 3′ NotI sites. Human GABAA subunits α2, β3 and γ2 (Genbank accession numbers; α2 NM_000807, β3 NM_000814, γ2 NM_000816) were inserted into pGen-IRES-neo2 vectors using NotI 5′ and 3′ sites.
CHO-K1 cell line (ATCC, CCL-61) was cultured in Ham's F-12 medium supplemented with 10% fetal bovine serum and incubated at 37°C and 5% CO2. Transient transfection was performed using MaxCyte STX electroporation instrument (MaxCyte, Inc.) with CHO cell line specific electroporation protocol. The cells were split one day prior to electroporation to ensure that cells were in the log phase growth at time of transfection. Cells were harvested with Accutase (PAA Laboratories), pelleted at 250 g for 10 minutes, rinsed with MaxCyte Electroporation Buffer (MaxCyte, Inc.), pelleted again and resuspended in MaxCyte Electroporation Buffer at a density of 1×10^8 cells/ml. CHO-K1 cells were electroporated simultaneously with four plasmids using a total amount of 300 µg DNA per 1×10^8 cells; YFP-H148Q/I152L (150 µg) and GABAA (72.5 µg α2, […] and 72.5 µg γ2) plasmids. Following electroporation, cells were incubated at 37°C and 5% CO2 for 20 minutes to recover. Cells were then diluted in culture medium and centrifuged 250 g for 10 minutes. Pelleted cells were resuspended to 5–10×10^6 cells/ml in Ham's F12 with 20% fetal bovine serum and 10% DMSO, and cryopreserved using controlled-rate cryo containers (Nalgene, Thermo Scientific). Cryopreserved assay-ready cells were used for all experiments.
Cryopreserved transiently transfected cells were thawed and plated in 384-well poly-D-lysine-coated plates at a density of 15000 cells/well using a Multidrop Combi Reagent Dispenser (Thermo Scientific). After 24 h incubation at 37°C and 5% CO2, cells were washed three times on an ELx405 Select Deep Well Microplate Washer (BioTEK), exchanging 50 µl culture medium with 30 µl HBSS buffer supplemented with 20 mM Hepes. Plates were incubated with buffer for 1 h at 37°C and 5% CO2. Cell plates were assayed on a FLIPR Tetra (Molecular Devices) using excitation filter of 470–495 nm and emission filter of 515–575 nm. Starting with 30 µl buffer in each well, cells were pre-incubated with 10 µl compound for 15 minutes. […] Compounds were initially solubilized to a concentration of 10 mM in DMSO and then diluted in HBSS buffer with 20 mM Hepes. Final DMSO concentration in the assay was 0.02% for modulators and at 1% for Picrotoxin and Bicuculline.
Data at 1–10 s was adjusted to a baseline of 100% and results were then extracted as % quench at 120 s. % quench is defined as (Finit – Ffinal)/Finit*100 where Finit and Ffinal are the initial and final values of fluorescence respectively. […] Curve fits were performed using least-squares fitting routine (GraphPad Prism 5, GraphPad Software Inc.).
The 95% confidence interval was calculated as 2× this standard error. Taking the anti-log converts this to a fold change (ratio) between two EC50 values.

[2] = test system: α2β3γ2 ion channel subtype; set-up: method as in PMID 19090692; conditions: VSD assay; cited from earlier work
[3] = test system: GABA α2β3γ2; set-up: method as in PMID 14680756, PMID 16183706; conditions: mouse fibroblast L(tk−) cells; cited from earlier work
[4] = 1 µM modulator, p<0.05, difference in pEC50 ≥0.15 significant

T1 sequence (P47869 29-451): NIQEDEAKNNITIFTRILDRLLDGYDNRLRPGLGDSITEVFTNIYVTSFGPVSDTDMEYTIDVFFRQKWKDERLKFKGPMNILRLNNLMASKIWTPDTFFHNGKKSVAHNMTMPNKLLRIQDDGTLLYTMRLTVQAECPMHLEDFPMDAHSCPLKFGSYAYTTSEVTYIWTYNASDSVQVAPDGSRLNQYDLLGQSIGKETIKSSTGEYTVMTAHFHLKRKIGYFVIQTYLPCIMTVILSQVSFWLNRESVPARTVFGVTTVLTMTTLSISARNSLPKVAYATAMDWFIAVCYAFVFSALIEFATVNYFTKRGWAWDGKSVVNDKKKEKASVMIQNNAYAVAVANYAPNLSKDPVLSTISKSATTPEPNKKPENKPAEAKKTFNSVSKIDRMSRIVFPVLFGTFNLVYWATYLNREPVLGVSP
T1 sequence (P28472 26-473): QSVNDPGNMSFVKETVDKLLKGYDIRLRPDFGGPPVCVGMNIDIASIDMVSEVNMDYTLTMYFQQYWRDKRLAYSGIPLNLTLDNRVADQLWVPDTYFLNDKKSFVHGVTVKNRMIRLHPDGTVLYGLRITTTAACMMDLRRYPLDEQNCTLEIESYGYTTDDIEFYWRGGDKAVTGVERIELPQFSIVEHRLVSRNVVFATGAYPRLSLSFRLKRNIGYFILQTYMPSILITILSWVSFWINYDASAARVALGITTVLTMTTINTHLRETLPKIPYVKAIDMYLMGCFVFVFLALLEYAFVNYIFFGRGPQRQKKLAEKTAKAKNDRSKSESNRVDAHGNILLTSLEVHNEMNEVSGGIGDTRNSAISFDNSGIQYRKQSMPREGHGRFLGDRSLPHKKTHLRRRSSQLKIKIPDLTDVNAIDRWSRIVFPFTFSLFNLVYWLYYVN
T1 sequence (P18507 40-467 isoform P18507-1 limits assumed): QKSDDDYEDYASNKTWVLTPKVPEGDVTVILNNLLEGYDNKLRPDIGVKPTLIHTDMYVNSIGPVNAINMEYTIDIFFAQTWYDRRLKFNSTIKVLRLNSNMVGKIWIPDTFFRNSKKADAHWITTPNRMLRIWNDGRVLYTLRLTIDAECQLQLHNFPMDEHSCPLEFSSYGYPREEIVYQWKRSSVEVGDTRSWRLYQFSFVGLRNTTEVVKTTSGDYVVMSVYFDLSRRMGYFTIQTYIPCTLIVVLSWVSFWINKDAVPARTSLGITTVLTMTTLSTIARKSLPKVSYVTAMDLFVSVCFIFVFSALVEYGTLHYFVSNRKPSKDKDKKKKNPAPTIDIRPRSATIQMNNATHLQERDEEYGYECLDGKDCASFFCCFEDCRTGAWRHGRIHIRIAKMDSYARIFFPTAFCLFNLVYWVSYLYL

For `CCCN(CCC)C(=O)Cc1c(-c2ccc(Cl)cc2)nc2ccc(Cl)cn12` [Alpidem], the “allosteric effect on GABA” value ([1]; 1 µM modulator, 95% confidence) was “significant positive allosteric effect” and the “Significance 95% confidence of pEC50 difference vs GABA alone” value [1, 4] was “Significant difference”.

`CN1CCc2cc3c(cc2[C@H]1[C@@H]1OC(=O)c2c1ccc1c2OCO1)OCO3` [Bicuculline] showed an IC50 [1] of 2.14 µM.

With `CN1C(=O)CC(=O)N(c2ccccc2)c2cc(Cl)ccc21` [Clobazam] the “allosteric effect on GABA” value ([1]; 1 µM modulator, 95% confidence) was “significant positive allosteric effect” and the “Significance 95% confidence of pEC50 difference vs GABA alone” value [1, 4] was “Significant difference”.

In the case of `O=C1CC(=O)N(c2ccccc2)c2cc(Cl)ccc2N1` [Desmethyl-clobazam], the “Significance 95% confidence of pEC50 difference vs GABA alone” value [1, 4] is reported as “non-significant”.

With `CN1C(=O)CN=C(c2ccccc2)c2cc(Cl)ccc21` [Diazepam] the “GABA EC50 shift” value [1] was 1.7 fold, the “Significance 95% confidence of pEC50 difference vs GABA alone” value [1] was “Significant difference” and the “allosteric effect on GABA” value [1] was “significant positive allosteric effect”. The “modulation of GABA EC20 quench” value [1] was “significant increase” and the “pEC50 difference (GABA with modulator vs GABA alone)” value [2] was 0.41.

For `Cn1ncnc1COc1nn2c(-c3cc(F)ccc3F)nnc2cc1C(C)(C)C` [L-838417], the “allosteric effect on GABA” value ([1]; 1 µM modulator, 95% confidence) is given as “not able to detect any significant allosteric modulation”, the “Significance 95% confidence of pEC50 difference vs GABA alone” value [1, 4] is given as “non-significant” and the “relative in vitro efficacy, potentiation of GABA EC20 compared to 100% response from chlordiazepoxide” value [3] is given as 34%. The “modulation of GABA signal” value [2] was “detected modulation of GABA signal”.

In the case of `O=C1Nc2ccc(Cl)cc2C(c2ccccc2Cl)=NC1O` (centres unmarked) [Lorazepam], the “allosteric effect on GABA” value ([1]; 1 µM modulator, 95% confidence) is reported as “significant positive allosteric effect” and the “Significance 95% confidence of pEC50 difference vs GABA alone” value [1, 4] is reported as “Significant difference”.

For `CCn1ncnc1COc1nn2c(-c3ccccc3F)nnc2cc1C(C)(C)C` [TPA-023, 7-(1,1-dimethylethyl)-6-(2-ethyl-2H-1,2,4-triazol-3-ylmethoxy)-3-(2-fluorophenyl)-1,2,4-triazolo z[4,3-b]pyridazine], the “allosteric effect on GABA” value ([1]; 1 µM modulator, 95% confidence) was “not able to detect any significant allosteric modulation”, the “Significance 95% confidence of pEC50 difference vs GABA alone” value [1, 4] was “non-significant” and the “modulation of GABA EC20 quench” value ([1]; EC20 of GABA with 1 µM modulator, 10 mM I−) was “No significant change”. For the same compound, the “relative in vitro efficacy, potentiation of GABA EC20 compared to 100% response from chlordiazepoxide” value [3] was 11%.

In the case of Picrotoxin, the “effect on basal (agonist-independent) YFP quench” value ([1]; 100 µM, 15 min prior to buffer with different I− concentrations) is reported as “reduced basal quench to background levels” and the “effect on YFP quench in cells activated with EC80 of GABA” value ([1]; 1 mM, EC80 of GABA in 10 mM NaI buffer) is reported as “blocked YFP quench”.
